Results on 2 molecules are retold here after patent US8329695B2, “Crystalline form of the free base N-[trans-4-[4-(cyclopropylmethyl)-1-piperazinyl]cyclohexyl]-4-[[(7r)-7-ethyl-5,6,7,8-tetrahydro-5-methyl-8-(1-methylethyl)-6-oxo-2-pteridinyl]amino]-3-methoxy-benzamide” (Boehringer Ingelheim International GmbH, priority 2007, dated 2012).

The structures appear in SMILES notation. Where only a bound is given, the exact number is not on record here.

What all share (format): physicochemical
Series [1] is described as follows: Solid state stability of the trihydrochloride salt forms. Conditions: humidity lowered down to 10% r.h. The text has this: Under standard conditions the crystalline trihydrochloride salt form of N-[trans-4-[4-(cyclopropylmethyl)-1-piperazinyl]cyclohexyl]-4-[[(7R)-7-ethyl-5,6,7,8-tetrahydro-5-methyl-8-(1-methylethyl)-6-oxo-2-pteridinyl]amino]-3-methoxy-benzamide is present in the form of an hydrate and is obtainable after drying with a changing stoichiometry (1-3 water equivalents). The hydrate with a stoichiometry close to a trihydrate seems to be the stable hydrated form under ambient conditions and can be obtained after conditioning of the dried material. The crystal water is tightly bound.
The respective anhydrous form, obtained by heating a sample up to 140° C., is not stable.

Series [2] in a line: Solubility in aqueous media. The text has this:
Solubility in Aqueous Media

Series [3] is described as follows: Hygroscopical behaviour, water sorption isotherms (DVS-1). Conditions: 25° C. How it is done:
To study the hygroscopical behaviour of this material, sorption isotherms are registered on a DVS-1 water sorption monitor from Surface Measurement Systems. Adsorption and desorption isotherms are performed at 25° C. with 10% r.h. step intervals ranging from 10% r.h. up to 90% r.h.

Series [4] in a line: Intrinsic dissolution rate in aqueous media (rotating disc method). Conditions: 37° C., 200 rpm. How it is done: The intrinsic dissolution rate of this crystalline form of the compound […] which maintains a constant surface area. 5 mg drug substance is compressed to form a disc at 356.1 N for 60 s. These discs are mounted to specially designed sample holders which fit into a Sotax dissolution tester. The dissolution media (37° C.) are stirred at 200 rpm. Samples are automatically withdrawn every second minute from the dissolution vessel and assayed via UV spectrophotometry. The intrinsic dissolution rate expressed in μg/cm^2/min is calculated using the slope of the concentration versus time plot and from the linear portion of the slope of the dissolution curve, volume of dissolution medium (35 ml) and area (diameter: 2 mm) of the exposed disk.

On to `CC[C@@H]1C(=O)N(C)c2cnc(Nc3ccc(C(=O)N[C@H]4CC[C@H](N5CCN(CC6CC6)CC5)CC4)cc3OC)nc2N1C(C)C.Cl.Cl.Cl.O.O.O` [formula (I) trihydrochloride, N-[trans-4-[4-(cyclopropylmethyl)-1-piperazinyl]cyclohexyl]-4-[[(7R)-7-ethyl-5,6,7,8-tetrahydro-5-methyl-8-(1-methylethyl)-6-oxo-2-pteridinyl]amino]-3-methoxy-benzamide trihydrochloride trihydrate], for which the “weight loss on lowering the humidity” value in series [1] is “does not result in a significant weight loss”.
Regarding `CC[C@@H]1C(=O)N(C)c2cnc(Nc3ccc(C(=O)N[C@H]4CC[C@H](N5CCN(CC6CC6)CC5)CC4)cc3OC)nc2N1C(C)C` [formula (I), N-[trans-4-[4-(cyclopropylmethyl)-1-piperazinyl]cyclohexyl]-4-[[(7R)-7-ethyl-5,6,7,8-tetrahydro-5-methyl-8-(1-methylethyl)-6-oxo-2-pteridinyl]amino]-3-methoxy-benzamide], the solubility is 3 µg/mL in series [2] (Sörensen buffer, aqueous buffer, thermodynamic from solid, Sörensen pH 9.0, pH of the saturated solution 9.2); 7 µg/mL in series [2] (Sörensen buffer, aqueous buffer, thermodynamic from solid, Sörensen pH 10, pH of the saturated solution 9.9); 9 µg/mL in series [2] (Sörensen buffer, aqueous buffer, thermodynamic from solid, Sörensen pH 11, pH of the saturated solution 10.5); over 10000 µg/mL in series [2] (aqueous buffer, thermodynamic from solid, McIlvaine buffer pH 2.2, pH of the saturated solution 2.8); over 10000 µg/mL in series [2] (aqueous buffer, thermodynamic from solid, McIlvaine buffer pH 3.0, pH of the saturated solution 3.6); over 10000 µg/mL in series [2] (aqueous buffer, thermodynamic from solid, McIlvaine buffer pH 4.0, pH of the saturated solution 4.6). In addition, the solubility was over 10000 µg/mL in series [2] (aqueous buffer, thermodynamic from solid, McIlvaine buffer pH 5.0, pH of the saturated solution 5.5); over 10000 µg/mL in series [2] (aqueous buffer, thermodynamic from solid, McIlvaine buffer pH 6.0, pH of the saturated solution 6.3); over 10000 µg/mL in series [2] (aqueous buffer, thermodynamic from solid, McIlvaine buffer pH 7.0, pH of the saturated solution 7.2); 2500 µg/mL in series [2] (aqueous buffer, thermodynamic from solid, McIlvaine buffer pH 7.4, pH of the saturated solution 7.4); over 10000 µg/mL in series [2] (pH 1.1, simulated gastric fluid, thermodynamic from solid, medium 0.1 N HCl, pH of the saturated solution 1.1); 7600 µg/mL in series [2] (pH 6.8, simulated gastric fluid, thermodynamic from solid, medium 0.01 N HCl, pH of the saturated solution 6.8). Further, the solubility in series [2] (pH 9.6, thermodynamic from solid, medium water, pH of the saturated solution 9.6) is 110 µg/mL; in series [2] (pH 11.7, aqueous buffer, thermodynamic from solid, 0.01 N NaOH, pH of the saturated solution 11.7) it was 8 µg/mL; in series [2] (pH 12.8, aqueous buffer, thermodynamic from solid, 0.01 N NaOH (second line), pH of the saturated solution 12.8) it was 3 µg/mL; in series [2] (phosphate buffer, aqueous buffer, thermodynamic from solid, Phosphate pH 6.0, pH of the saturated solution 6.5), over 10000 µg/mL; in series [2] (phosphate buffer, aqueous buffer, thermodynamic from solid, Phosphate pH 7.0, pH of the saturated solution 7.3) it was 10000 µg/mL; in series [2] (phosphate buffer, aqueous buffer, thermodynamic from solid, Phosphate pH 8.0, pH of the saturated solution 8.1), 36 µg/mL. Also, the “solubility profile in aqueous media (conclusion in words)” value in series [2] (aqueous media of Table 1) was “good solubility profile”. Moreover, the “hygroscopicity (in words)” value in series [3] (10% r.h. up to 90% r.h.) was “not hygroscopic”. The “reversibility of the water-uptake” value in series [3] (adsorption and desorption isotherms) is reported as “completely reversible”. Further, the uptake of water entry in series [3] (over the range 10-90% r.h.) is given as “approx. 0.7%”. Also, the dissolution rate in series [4] (pH of aqueous medium 1.1) is recorded as 6600 μg/cm^2/min; in series [4] (pH of aqueous medium 3.1) it was 2760 μg/cm^2/min; in series [4] (pH of aqueous medium 4.1) it was 1810 μg/cm^2/min; in series [4] (pH of aqueous medium 5.0), 1390 μg/cm^2/min; in series [4] (pH of aqueous medium 6.1), 1180 μg/cm^2/min; in series [4] (pH of aqueous medium 7.5), under 50 μg/cm^2/min.

Usually solubility stands for the dissolved amount per volume that the medium holds.
